Experimental data published in PubChem BioAssay (NCI).
Values joined by “and” are separate entries in the source; they are usually repeats but may differ in a detail not shown here. Equal entries are not always repeated.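 Five concentrations, 48 hours, 96-well plates. GI50 marks 50% less growth. TGI denotes the concentration required for complete inhibition of growth.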

Legend:
Experiment in all cases: NCI tumour cell line growth inhibition, 48 h
UACC-257 melanoma = tested on: UACC-257 melanoma
NCI-H522 lung = tested on: NCI-H522 lung
SN12C renal = tested on: SN12C renal
A498 renal = tested on: A498 renal
RXF 393 renal = tested on: RXF 393 renal
ACHN renal = tested on: ACHN renal
SK-MEL-5 melanoma = tested on: SK-MEL-5 melanoma
HL-60(TB) leukemia = tested on: HL-60(TB) leukemia
NCI-H226 lung = tested on: NCI-H226 lung
BT-549 breast = tested on: BT-549 breast

Row | SMILES | TGI (UACC-257 melanoma) [µM] | TGI (NCI-H522 lung) | TGI (SN12C renal) [µM] | TGI (A498 renal) | TGI (RXF 393 renal) [µM] | TGI (ACHN renal) [µM] | TGI (SK-MEL-5 melanoma) [µM] | GI50 (UACC-257 melanoma) [µM] | GI50 (HL-60(TB) leukemia) [µM] | TGI (HL-60(TB) leukemia) [µM] | GI50 (NCI-H522 lung) [µM] | GI50 (NCI-H226 lung) [µM] | TGI (NCI-H226 lung) [µM] | GI50 (A498 renal) [µM] | GI50 (RXF 393 renal) [µM] | GI50 (ACHN renal) [µM] | GI50 (SK-MEL-5 melanoma) [µM] | GI50 (SN12C renal) [µM] | TGI (BT-549 breast) [µM] | GI50 (BT-549 breast) [µM]
1 | NC(CCC(=O)NC(CSSCCCCS(=O)O)C(=O)NCC(=O)O)C(=O)O (configuration not stated) | > 100 | > 100 µM | > 100 | > 100 µM | > 100 | > 100 | > 100 |  |  |  |  |  |  |  |  |  |  |  |  | 
2 | O=c1/c(=C/c2ccco2)sc2nc3ccccc3n12 | > 100 | > 100 µM | > 10 | > 100 µM | > 100 | > 100 | > 100 | > 100 | > 100 | > 100 | > 100 | > 100 | > 100 | > 100 | > 10 | > 100 | > 100 |  |  | 
3 | CCc1ccc(/C=C\c2cc(OC)c(OC)c(OC)c2)cc1 | 72.1 | 0.0503 µM and 0.0384 µM |  | 0.433 µM and 0.389 µM | 0.0783 | 31.8 | 0.464 | 0.0802 | 0.0172 |  |  |  | 0.0792 | 0.0233 |  | 0.0784 |  | 0.0539 |  | 
4 | COc1ccc(/C=C/CN(C)CCc2ccccc2)cc1OC | > 100 |  | > 100 |  | > 100 | > 100 | > 100 |  |  |  |  |  | > 100 |  |  |  |  |  |  | 
5 | CC(C)C(=O)NC(=S)Nc1ccc([N+](=O)[O-])cc1C#N | > 100 | > 100 µM | > 100 | > 100 µM | > 100 | > 100 | > 100 |  |  | > 100 |  |  | > 100 |  |  |  |  |  |  | 
6 | CCOC(=O)[C]1([Bi]([CH3])[CH3])N=NC(C(=O)OC)=C1C(=O)OC (configuration not stated) |  |  | 35.8 | 49 µM |  | 32.4 |  |  | 21.2 | 52.1 |  | 20.6 | 41.4 | 25.7 |  | 18 |  | 19.2 |  | 
7 | O=C1CCC(=O)N2CCCCN12 | > 100 | > 100 µM | > 100 | > 100 µM | > 100 | > 100 | > 100 |  |  | > 100 |  |  | > 100 |  |  |  |  |  |  | 
8 | C/C(CC(=O)Nc1cc(Cl)c(Cl)cc1Cl)=N\NC(N)=O | > 100 | > 100 µM |  |  | > 100 |  | > 100 |  |  | > 100 |  |  | > 100 |  |  |  |  |  |  | 
9 | Cc1ccc2c(c1)[n+]([O-])c(N)n[n+]2[O-] | > 100 | > 100 µM | > 100 | > 100 µM |  | > 100 | > 100 |  |  | > 100 |  |  | > 100 |  |  |  |  |  | > 100 | 
10 | O=C1O[C@@H](c2ccc3c(c2)OCO3)C2C(=O)O[C@@H](c3ccc4c(c3)OCO4)C12 (some centres not stated) | > 100 | > 100 µM | > 100 | > 100 µM | > 100 | > 100 | > 100 |  |  | > 100 |  |  | > 100 |  |  |  |  |  |  | 
11 | CCOC(=O)C1=C(OC(OCC)C(CC)[Se]c2ccccc2)CCCC1 (configuration not stated) | > 100 | 28.4 µM | 34.1 | > 100 µM | 37.7 | 82.2 | 35.8 |  |  | 47.8 |  |  | 61.3 |  |  |  |  |  |  | 
12 | COc1cc(C2=NOC(c3cc(OC)c(OC)c(OC)c3)C2)ccc1OCCCCOc1cc2c(cc1OC)C(=O)N1CCC[C@H]1C=N2 (some centres not stated) | 0.727 | 2.13 µM | 3.51 | 0.396 µM |  | 0.523 | 0.319 | 0.286 | 0.309 | 6.5 | 0.217 |  |  | 0.194 |  | 0.243 | 0.168 | 0.358 | 0.385 | 0.156
13 | O=C(/C=C/c1c(O)ccc2ccccc12)c1cccc(O)c1 | > 100 | > 100 µM | > 100 | > 100 µM | > 100 | > 100 | > 100 |  |  | > 64.3 |  |  | > 100 |  |  |  |  |  |  | 
14 | O=c1c2cc([N+](=O)[O-])ccc2sc2ccsc12 | > 100 | > 100 µM | > 100 | > 100 µM | > 100 | > 100 | > 100 |  |  | > 100 |  |  | > 100 |  |  |  |  |  |  | 
15 | NC(=O)C(=O)N/N=C(\CC1(O)C(=O)Nc2ccccc21)c1ccc2ccccc2c1 (configuration not stated) | > 100 | 41.6 µM | 60.5 | 82.1 µM | 41.2 | > 100 | > 100 |  |  | 36.5 |  |  | > 100 |  |  |  |  |  |  | 
16 | CCCCN=C(NC#N)NCCCC | > 100 | > 100 µM | > 100 | > 100 µM | > 100 | > 100 | > 100 |  |  |  |  |  | > 100 |  |  |  |  |  |  | 
17 | CC(=O)CNC(=O)OC(C)(C)C | > 100 | > 100 µM | > 100 | > 100 µM | > 100 | > 100 | > 100 |  |  | > 100 |  |  | > 100 |  |  |  |  |  |  | 
18 | O=C(O)CNS(=O)(=O)c1ccc(NCc2ccccc2)cc1 | > 100 | > 100 µM | > 100 |  | > 100 | > 100 | > 100 |  |  |  |  |  | > 100 |  |  |  |  |  |  | 
19 | N#Cc1cc([N+](=O)[O-])ccc1NC(=O)C(=O)Nc1n[nH]c(N)n1 | > 100 | > 100 µM | > 100 | > 100 µM | > 100 | > 100 | > 100 |  |  | > 100 |  |  | > 100 |  |  |  |  |  |  | 
20 | COC(=O)C1Cc2c(n(Cc3ccccc3)c3ccccc23)C(CCC(=O)O)N1C(C)C (configuration not stated) | > 100 | > 100 µM | > 100 | > 100 µM |  | > 100 | > 100 |  |  | > 100 |  |  | > 100 |  |  |  |  |  |  | 
21 | COc1cc(C2NC(=O)c3ccccc3N2)ccc1OCCCCCOc1c(OC)cc(C2=NOC(c3cc(OC)c(OC)c(OC)c3)C2)cc1OC (configuration not stated) | 69.9 | > 56.2 µM | > 100 | > 76.8 µM |  | > 100 | 0.546 | 0.296 | 11.7 | > 53.9 | 17.1 |  | > 100 | 19.5 |  | 0.556 | 0.142 | 31.3 | > 100 | 0.507
22 | CSC(C1c2ccccc2N(c2ccc(C)cc2)C2=NC(=O)N(C)C(=O)C21Cl)S(=O)(=O)c1ccc(C)cc1 (configuration not stated) | 57.2 | 31.9 µM | 58.5 | 92.7 µM |  | > 100 | 32.3 |  |  | 12.6 |  |  | 48.7 |  |  |  |  |  |  | 
